From US10881709B2, “Immune system modulators and compositions” (Canimguide Therapeutics AB, priority 2015, dated 2021)
Ends that are not written are not given here.

Assays:
PBMCs [1] = assay: Mitochondrial metabolism of PBMCs, conversion of MTS; type: cell-based, human; conditions: PBMCs from cancer patients, 5-40 μg/ml
Protocol: PBMCs from eight healthy control samples and nine cancer patients with various diagnoses (including renal cell cancer, malignant melanoma, rectal cancer, small cell lung cancer, non-small cell lung cancer (adenocarcinoma), squamous cell carcinoma, bladder cancer, osteosarcoma, pancreatic cancer, or bronchial cancer) were cultured in a modified version of the ex vivo model of Example 2 for seven days in the presence of various quantities of P28R (SEQ ID NO: 2), and control samples were untreated with P28R. […] Similar results were obtained when the PBMCs were cultured for only three days.
PBMCs from cancer patients with various diagnoses were cultured in a modified version of the ex vivo model of Example 2 with various concentrations of P28R or P27 (N=9 for P28R: N=8 for P27). The concentrations were either untreated control samples, 5 μg/mL (“SCF28-R5” and “SCF275”), 10 μg/ml (“SCF28-R10” and “SCF2710”), 20 μg/ml (“SCF28-R20” and “SCF2720”), or 40 μg/ml (“SCF28-R40” and “SCF2740”).

PBMCs [2] = assay: IL-2 induced proliferation of PBMCs, BrdU incorporation; type: cell-based, human; conditions: PBMCs with low initial proliferation / low response to IL-2, 7 days
Protocol: PBMCs were cultured for 7 days with IL-2 and the proliferative rate was determined as incorporation of BrdU. Each bar represents mean value of triplets. Similar to the studies on the efficacy of antibodies (see FIG. 22) directed against P3028 to reverse cancer related immunosuppression determined as a poor proliferative response of PBMCs from cancer patients to IL-2, the efficacy of the low molecular weight inhibitor P28R on reversal of suppressed IL-2 induced proliferation was investigated. For each quantity of added P28R, IL-2 stimulated cells 240 are shown in the left, and unstimulated 242 are shown on the right. […]
The effect of P28R (SEQ ID NO: 2) on IL-2 induced proliferation was measured in a BrdU incorporation assay. […]
The response of high responders and low responders to various doses of P28R was compared. […] IL-2-induced proliferation was measured as BrdU incorporation, as in the above example, and the results are shown for high responders in FIG. 36A, and low responders in FIG. 36B.
PBMCs from low responder cancer patients of Example 30 were cultured as in Example 30, except that some samples were cultured with various concentrations P28R (aka “SCF28-R”), and others were cultured with various concentrations of P27 (aka “SCF27”). […] BrdU incorporation was measured as in Example 30. […]

[3] = target: P3028 (PGE73=His-tag-P3028) (Homo sapiens, UniProt P02768); assay: Blocking of P3028 binding by peptide inhibitors in solution (PEPSCAN-based ELISA); conditions: peptide 0.5 mg/mL
Protocol: Three candidate peptide inhibitors of P3028 sequences/structures were identified and their blocking capacity in solution was tested. Potential peptide inhibitors of P3028 were synthesized on a chip. The linear and/or CLIPS peptides were synthesized based on the amino acid sequence of the target protein using standard Fmoc-chemistry and deprotected using trifluoric acid with scavengers. The constrained peptides were synthesized on chemical scaffolds in order to reconstruct conformational epitopes, using Chemically Linked Peptides on Scaffolds (CLIPS) technology (Timmerman et al. (2007)). For example, the single looped peptides were synthesized containing a dicysteine, which was cyclized by treating with alpha, alpha′-dibromoxylene and the size of the loop is varied by introducing cysteine residues at variable spacing. […] After one hour, the color development was measured. The color development was quantified with a charge coupled device (CCD)—camera and an image processing system.
The raw data (Raw Data: Optical density, Arbitrary OD units) are optical values obtained by a CCD-camera. The values mostly range from 0 to 3000, a log scale similar to 1 to 3 of a standard 96-well plate ELISA-reader. […] Sometimes a well contains an air-bubble resulting in a false-positive value, the cards are manually inspected and any values caused by an air-bubble are scored as 0. […]

[4] = test system: PBMCs from healthy control person; assay: PBMC activation (CD69/CD71, flow cytometry) in RPMI plus 10% human AB serum; type: cell-based; conditions: 40 μg/mL, 24 hours, healthy PBMCs
Protocol: The activity of peptide P28R (SEQ ID NO: 2) and modifications of P28R was studied in a human ex vivo model using PBMCs in short term cultures, 24 or 48 hours. Effects of P28R and modifications of P28R on PBMCs from a healthy control person were studied. Activation was measured as percentage of cells with enhanced marker CD69 using flow cytometry. PBMCs were incubated with the peptides (40 μg/mL) for 24 hours in RPMI plus 10% human AB serum.
As observed in Example 37, P28R (SEQ ID NO: 2) can stimulate PBMCs from healthy controls in short term cultures when RPMI plus 10% normal human AB serum is used as culture medium. Truncations of P28R were also assessed for their ability to activate PBMCs. PBMCs were incubated with the peptides (40 μg/mL) for 24 hours in RPMI plus 10% human AB serum. PBMC activation was measured as percent cells with enhanced expression of either CD69 (FIG. 42A) or CD71 (FIG. 42B) using flow cytometry. Two experiments were performed for each peptide.
Effects of modified peptides on activation of PBMCs from healthy control person were assessed. Activation was determined as percentage of cells with enhanced marker CD69 or CD71 using flow cytometry. PBMCs were incubated with the peptides (40 μg/mL) for 48 hours in RPMI plus 10% human AB serum.

PBMCs [5] = assay: PBMC activation (CD69) in culture medium with cancer sera; type: cell-based; conditions: sera from dogs with cancer or human patients with cancer
P3028 (SEQ ID NO: 185) = P3028 (SEQ ID NO: 185) (Homo sapiens, UniProt P02768); assay: Positional scan: P3028 binding to solid phase P28R variants (ELISA)
Protocol: Positional scan data was used to study the influence of substitution of different types of amino acids in each position of P28R (SEQ ID NO: 2) on the binding of P3028 (SEQ ID NO: 185). Each amino acid in the peptide sequence of P28R (SEQ ID NO: 2) was exchanged with all of the naturally occurring amino acids, and immobilized on a solid phase chip. The binding of P3028 to these “mutated” P28 R peptides synthesized on a chip was determined using the ELISA technique. In view of the results, Table 13 includes a column identifying optional substitutions at each position that can maintain binding to P3028.

PBMCs [6] = assay: Direct binding to PBMCs (immunocytochemistry, rosetting of coated beads); design: species or system human

KKLDTFFKKLSLFTER [P27] was tested, and the “effect on MTS conversion” value (PBMCs [1]) was “no effect”, the “effect on IL-2 induced proliferation (BrdU)” value (PBMCs [2]) was “enhanced the proliferative rate” and the “blocking of the binding of P3028 in solution” value [3] was “does not”.
FFVKLS [P28 core] was tested, and the “PBMC activation, enhanced CD69 or CD71” value [4] was “did not activate”, the “PBMC activation, enhanced CD69” value (PBMCs [5]) was “activated PBMCs” and the “binding to P3028 based on positional scans” value (P3028 (SEQ ID NO: 185)) was “as efficiently as the full length peptide P28R”.
“biotinylated P28R: P28R labelled with biotin (KKLDTFFVKLSLFTER; also: biotin label, position not given here)” was tested, and the “direct binding to PBMCs” value (PBMCs [6]) was “bind directly to PBMCs”.
